Measured values taken from ChEMBL document CHEMBL1201862, “PubChem BioAssay data set” (2004).
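Test compounds were applied to cells in 96-well plates for 48 hours at 5 doses. Here, GI50 denotes the concentration required for 50% inhibition of growth.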 The source made the active and inactive calls. Cut-off read from the data, not from the text of the source: active = GI50 up to about 1.1 µM and inactive = higher. Where a SMILES comes first, the peptide text is derived from it. [ ]: non-standard residue; d: D form. The star is where a group is joined. Octanoyl = CCCCCCCC(=O)*; Aib = CC(C)(N)C(=O)O; tBu = CC(C)(C)*

Experiments:
Experiment in all cases: NCI tumour cell line growth inhibition, 48 h
OVCAR-4 = tested on: OVCAR-4
HOP-92 = tested on: HOP-92
CCRF-CEM = tested on: CCRF-CEM
HT-29 = tested on: HT-29
SW-620 = tested on: SW-620
NCI-H226 = tested on: NCI-H226
UO-31 = tested on: UO-31
MDA-MB-231 = tested on: MDA-MB-231
HL-60 = tested on: HL-60
A549 = tested on: A549
786-0 = tested on: 786-0
K562 = tested on: K562
SN12C = tested on: SN12C
HCT-15 = tested on: HCT-15
UACC-62 = tested on: UACC-62
ACHN = tested on: ACHN
SR = tested on: SR
SNB-19 = tested on: SNB-19
PC-3 = tested on: PC-3
KM-20L2 = tested on: KM-20L2

SMILES	GI50 (OVCAR-4)	GI50 (HOP-92)	GI50 (CCRF-CEM)	GI50 (HT-29)	GI50 (SW-620)	GI50 (NCI-H226)	GI50 (UO-31)	GI50 (MDA-MB-231)	GI50 (HL-60)	GI50 (A549)	GI50 (786-0)	GI50 (K562)	GI50 (SN12C)	GI50 (HCT-15) [µM]	GI50 (UACC-62)	GI50 (ACHN)	GI50 (SR)	GI50 (SNB-19)	GI50 (PC-3)	GI50 (KM-20L2)
CCCCCCCCCCCC1NC(N)=NC(CCCO)=C1C(=O)OC (stereo unspecified)	2.97 µM (inactive)	3.54 µM (inactive)	1.59 µM (inactive)	1.73 µM (inactive)	1.61 µM (inactive)	6.3 µM (inactive)	15.3 µM (inactive)	2.08 µM (inactive)	1.42 µM (inactive)	5.92 µM (inactive)	1.83 µM (inactive)	1.71 µM (inactive)	2.47 µM (inactive)	8.22	4.38 µM (inactive)	4.22 µM (inactive)	3.33 µM (inactive)	1.83 µM (inactive)	1.1 µM (active)	–
Cc1cc2c(cc1C)N1C(Cl)=C3CCCCC3=C(C#N)C1N2 (stereo unspecified)	12.3 µM (inactive)	7.4 µM (inactive)	2.48 µM (inactive)	2.55 µM (inactive)	2.02 µM (inactive)	13.5 µM (inactive)	6.55 µM (inactive)	8.75 µM (inactive)	3.05 µM (inactive)	19.9 µM (inactive)	1.92 µM (inactive)	3.6 µM (inactive)	4.71 µM (inactive)	2.61	2.94 µM (inactive)	3.16 µM (inactive)	3.65 µM (inactive)	20.2 µM (inactive)	13.6 µM (inactive)	–
CC1=C(C)C(=O)c2c(cc3c4ccccc4ccn23)C1=O	–	–	> 10 µM (inactive)	> 100 µM (inactive)	> 100 µM (inactive)	> 100 µM (inactive)	> 100 µM (inactive)	–	–	> 100 µM (inactive)	> 100 µM (inactive)	> 100 µM (inactive)	> 100 µM (inactive)	> 100	> 100 µM (inactive)	> 100 µM (inactive)	–	> 100 µM (inactive)	–	> 100 µM (inactive)
O=C1C(/C=C/c2ccc(Cl)cc2)=NNC2N1N=C1NC(=O)C3(NN12)c1ccccc1-c1ccccc13 (stereo unspecified)	> 100 µM (inactive)	41.9 µM (inactive)	65.6 µM (inactive)	66.2 µM (inactive)	> 100 µM (inactive)	> 100 µM (inactive)	94 µM (inactive)	> 100 µM (inactive)	> 100 µM (inactive)	> 100 µM (inactive)	> 100 µM (inactive)	35.4 µM (inactive)	> 100 µM (inactive)	69.5	> 100 µM (inactive)	> 100 µM (inactive)	< 0.01 µM (active)	> 100 µM (inactive)	> 100 µM (inactive)	–
CCOC(=O)c1cc2c3c(c(O)c(OC)c2s1)N(C(=O)c1cc2c4c(c(O)c(OC)c2s1)N(C(C)=O)CC4)CC3	71.6 µM (inactive)	29 µM (inactive)	> 100 µM (inactive)	> 100 µM (inactive)	> 100 µM (inactive)	50.4 µM (inactive)	64.4 µM (inactive)	–	28.2 µM (inactive)	> 100 µM (inactive)	36.6 µM (inactive)	> 100 µM (inactive)	> 100 µM (inactive)	–	98.6 µM (inactive)	77.3 µM (inactive)	–	> 100 µM (inactive)	–	> 100 µM (inactive)
O=S(=O)(Nc1ccccc1S(=O)(=O)c1ccccc1)c1ccccc1	51.3 µM (inactive)	76.9 µM (inactive)	42.7 µM (inactive)	48 µM (inactive)	92.3 µM (inactive)	> 100 µM (inactive)	> 100 µM (inactive)	> 100 µM (inactive)	30.8 µM (inactive)	67.1 µM (inactive)	> 100 µM (inactive)	61.5 µM (inactive)	> 100 µM (inactive)	50.6	49 µM (inactive)	82.2 µM (inactive)	> 100 µM (inactive)	> 100 µM (inactive)	52.4 µM (inactive)	–
N#Cc1ncc(C(Cl)Cl)nc1Cl	1.85 µM (inactive)	0.00769 µM (active)	0.491 µM (active)	1.74 µM (inactive)	1.94 µM (inactive)	9.27 µM (inactive)	1.78 µM (inactive)	1.74 µM (inactive)	0.748 µM (active)	3.24 µM (inactive)	1.76 µM (inactive)	1.33 µM (inactive)	1.74 µM (inactive)	1.82	2.17 µM (inactive)	2.04 µM (inactive)	1.81 µM (inactive)	6.38 µM (inactive)	1.8 µM (inactive)	–
COc1cc2cc(C(=O)N3CC(CCl)c4ccc(NCCN)cc43)[nH]c2c(OC)c1OC (stereo unspecified)	0.263 µM (active)	0.289 µM (active)	0.0783 µM (active)	0.145 µM (active)	0.151 µM (active)	0.296 µM (active)	0.132 µM (active)	0.223 µM (active)	0.0319 µM (active)	0.208 µM (active)	0.228 µM (active)	0.11 µM (active)	0.237 µM (active)	0.377	0.111 µM (active)	0.08 µM (active)	0.0279 µM (active)	0.292 µM (active)	0.117 µM (active)	–
COC1CCC(=C2C(=O)OC(C)(C)OC2=O)N1 (stereo unspecified)	> 100 µM (inactive)	–	> 100 µM (inactive)	> 100 µM (inactive)	> 100 µM (inactive)	> 100 µM (inactive)	> 100 µM (inactive)	–	> 100 µM (inactive)	> 100 µM (inactive)	> 100 µM (inactive)	> 100 µM (inactive)	> 100 µM (inactive)	> 100	> 100 µM (inactive)	> 100 µM (inactive)	–	> 100 µM (inactive)	–	> 100 µM (inactive)
CCN(CC)c1ccc(Cl)c2c1C(O)(C(C)C)C2(C)C (stereo unspecified)	19 µM (inactive)	–	18.5 µM (inactive)	11.8 µM (inactive)	18.1 µM (inactive)	16.5 µM (inactive)	17.3 µM (inactive)	–	15.6 µM (inactive)	19.9 µM (inactive)	14.5 µM (inactive)	19 µM (inactive)	16.7 µM (inactive)	14.5	–	17.4 µM (inactive)	–	15.2 µM (inactive)	–	14 µM (inactive)
CCOC(=O)c1[nH]cc(C)c1-c1c[nH]c2ccccc12	41.5 µM (inactive)	22.8 µM (inactive)	18.9 µM (inactive)	21.6 µM (inactive)	27.9 µM (inactive)	19.9 µM (inactive)	19.3 µM (inactive)	9.57 µM (inactive)	6.44 µM (inactive)	28.8 µM (inactive)	34.9 µM (inactive)	6.04 µM (inactive)	56 µM (inactive)	8.81	14.4 µM (inactive)	23 µM (inactive)	1.82 µM (inactive)	24.9 µM (inactive)	14 µM (inactive)	–
O=C1CS(=O)(=O)C(c2cccc(Oc3ccccc3)c2)N1c1ccc(Cl)cc1 (stereo unspecified)	22.8 µM (inactive)	6.14 µM (inactive)	25.6 µM (inactive)	25 µM (inactive)	30 µM (inactive)	21.9 µM (inactive)	28.6 µM (inactive)	31.4 µM (inactive)	24.2 µM (inactive)	30.8 µM (inactive)	16.5 µM (inactive)	14.5 µM (inactive)	22.1 µM (inactive)	20.2	8.71 µM (inactive)	19 µM (inactive)	10.6 µM (inactive)	46.7 µM (inactive)	17.9 µM (inactive)	–
Cc1ccc2c(c1)-c1c3c(nn1C)-c1ccccc1SC3O2 (stereo unspecified)	–	27 µM (inactive)	41 µM (inactive)	41.6 µM (inactive)	> 100 µM (inactive)	–	20.8 µM (inactive)	–	24.5 µM (inactive)	50 µM (inactive)	> 100 µM (inactive)	35.1 µM (inactive)	–	–	–	54.1 µM (inactive)	–	–	–	87.7 µM (inactive)
CC(=O)OC(C)c1cc2c(s1)C(=O)c1scc(C(C)OC(C)=O)c1C2=O (stereo unspecified)	0.298 µM (active)	1.71 µM (inactive)	0.367 µM (active)	0.391 µM (active)	0.298 µM (active)	2.24 µM (inactive)	0.204 µM (active)	0.473 µM (active)	0.646 µM (active)	0.363 µM (active)	0.244 µM (active)	0.355 µM (active)	0.288 µM (active)	0.195	0.212 µM (active)	0.238 µM (active)	0.21 µM (active)	0.201 µM (active)	0.292 µM (active)	–
CCCCCCCC(=O)NC(C)(C)C(=O)NC(COC(C)(C)C)C(=O)NC(CC(C)C)C(=O)NC(C)(C)C(=O)NC(COC(C)(C)C)C(=O)NC(COC(C)(C)C)C(=O)NC(CC(C)C)C(=O)NC(C)(C)C(=O)NC(COC(C)(C)C)C(=O)NC(C(=O)NC(CC(C)C)C(=O)OC)C(C)CC (stereo unspecified) (Octanoyl-[Aib]S(tBu)L[Aib]S(tBu)S(tBu)L[Aib]S(tBu)IL-OMe; configuration not given here)	8.63 µM (inactive)	4.43 µM (inactive)	4.79 µM (inactive)	4.94 µM (inactive)	8.95 µM (inactive)	7.33 µM (inactive)	14.6 µM (inactive)	5.86 µM (inactive)	6.46 µM (inactive)	8.18 µM (inactive)	7.89 µM (inactive)	5.52 µM (inactive)	7.57 µM (inactive)	8.13	7.8 µM (inactive)	7.62 µM (inactive)	5.62 µM (inactive)	7.55 µM (inactive)	4.23 µM (inactive)	–
O=C(O)c1cc(N(Cc2ccccc2O)Cc2cc(O)ccc2O)ccc1O [LAVENDUSTIN A]	> 100 µM (inactive)	> 100 µM (inactive)	45.4 µM (inactive)	> 100 µM (inactive)	> 100 µM (inactive)	> 100 µM (inactive)	> 100 µM (inactive)	> 100 µM (inactive)	> 100 µM (inactive)	> 100 µM (inactive)	> 100 µM (inactive)	> 100 µM (inactive)	> 100 µM (inactive)	> 100	> 100 µM (inactive)	> 100 µM (inactive)	82.8 µM (inactive)	> 100 µM (inactive)	42.3 µM (inactive)	–
